Molecules are shown by their SMILES.

GST-RIPK1 (recombinant GST-RIPK1 kinase domain (residues 1-327)), sequence (Q13546 1-327): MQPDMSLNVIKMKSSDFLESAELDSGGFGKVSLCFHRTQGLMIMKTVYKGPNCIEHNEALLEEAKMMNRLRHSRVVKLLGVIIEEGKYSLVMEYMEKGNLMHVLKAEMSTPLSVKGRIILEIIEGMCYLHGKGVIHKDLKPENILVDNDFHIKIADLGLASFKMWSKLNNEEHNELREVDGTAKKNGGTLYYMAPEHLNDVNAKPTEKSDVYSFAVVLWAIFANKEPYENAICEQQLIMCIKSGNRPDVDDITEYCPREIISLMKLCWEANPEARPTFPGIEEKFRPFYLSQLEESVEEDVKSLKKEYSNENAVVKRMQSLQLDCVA

The assay has as its target GST-RIPK1 (recombinant GST-RIPK1 kinase domain (residues 1-327)) (Homo sapiens (Human), UniProt Q13546). Kind of assay: RIPK1-ADP-Glo Enzymatic Assay. The format is biochemical. The conditions noted are these: 25 nM GST-RIPK1, 300 μM ATP, 3 μM dephosphorylated-MBP, 30 min pre-incubation, 150 min reaction. A digest of the protocol: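 GST-RIPK1 kinase domain (1-327, Sf21-expressed), 25 nM final, pre-incubated 30 min with compound (1% DMSO), then reacted 150 min with 300 μM ATP and 3 μM dephosphorylated MBP in HEPES pH 7.3/MgCl2 buffer. ADP measured by ADP-Glo luminescence; EC50 from 10-point 1:3 titrations (top 100000 nM), four-parameter fit.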
(In ADP-Glo the light output rises with the ADP produced.)
As usually defined, the EC50 is the midpoint of the concentration-response curve. For `O=c1n(C23CC(C(F)F)(C2)C3)nc2n1[C@H](c1ccccc1)CC2` [Compound 1-31, (5S)-2-[3-(difluoromethyl)bicyclo[1.1.1]pentan-1-yl]-5-phenyl-2,5,6,7-tetrahydro-3H-pyrrolo[2,1-c][1,2,4]triazol-3-one], the half-maximal effective concentration (EC50) came out at 36.8 nM.
For the compound `N#CC12CCC(n3nc4n(c3=O)[C@H](c3cc(F)cc(F)c3)CC4)(C1)C2` [Compound 1-35, 4-[(5S)-5-(3,5-difluorophenyl)-3-oxo-6,7-dihydro-3H-pyrrolo[2,1-c][1,2,4]triazol-2(5H)-yl]bicyclo[2.1.1]hexane-1-carbonitrile], the 50% effective concentration (EC50) was determined as 49.7 nM.
As to `N#CC12CC(n3nc4n(c3=O)[C@H](c3cc(F)cc(F)c3)CC4)(C1)C2` [Compound 1-5, 3-[(5S)-5-(3,5-difluorophenyl)-3-oxo-6,7-dihydro-3H-pyrrolo[2,1-c][1,2,4]triazol-2(5H)-yl]bicyclo[1.1.1]pentane-1-carbonitrile], the EC50 came to 14.8 nM.
As to `CC(F)(F)C12CC(n3nc4n(c3=O)[C@H](c3ccccc3)CC4)(C1)C2` [Compound 1-32, (5S)-2-[3-(1,1-difluoroethyl)bicyclo[1.1.1]pentan-1-yl]-5-phenyl-2,5,6,7-tetrahydro-3H-pyrrolo[2,1-c][1,2,4]triazol-3-one], the EC50 stood at 36.4 nM.
The value for `O=c1n(C23CC(F)(C2)C3)nc2n1[C@H](c1ccccc1)CCC2` [Compound 1-80, (S)-2-(3-fluorobicyclo[1.1.1]pentan-1-yl)-5-phenyl-5,6,7,8-tetrahydro-[1,2,4]triazolo[4,3-a]pyridin-3(2H)-one] was 73.3 nM.
In the case of `O=c1n(C23CC(F)(C2)C3)nc2n1[C@H](c1cc(F)c(Cl)c(F)c1)CC2` [Compound 1-77, (S)-5-(4-chloro-3,5-difluorophenyl)-2-(3-fluorobicyclo[1.1.1]pentan-1-yl)-2,5,6,7-tetrahydro-3H-pyrrolo[2,1-c][1,2,4]triazol-3-one], the EC50 is 16.7 nM.
To `O=c1n(C23CC(F)(C2)C3)nc2n1C(c1cccc(F)c1F)CC2` (racemic) [Compound 4-5, (±)-5-(2,3-difluorophenyl)-2-(3-fluorobicyclo[1.1.1]pentan-1-yl)-2,5,6,7-tetrahydro-3H-pyrrolo[2,1-c][1,2,4]triazol-3-one] belongs 53.8 nM; to `N#CC12CC(n3nc4n(c3=O)[C@H](c3ccc(F)cc3)CC4)(C1)C2` [Compound 1-38, 3-[(5S)-5-(4-fluorophenyl)-3-oxo-6,7-dihydro-3H-pyrrolo[2,1-c][1,2,4]triazol-2(5H)-yl]bicyclo[1.1.1]pentane-1-carbonitrile], 160 nM; to `Cc1cc(F)cc(C2CCc3nn(C45CC(F)(C4)C5)c(=O)n32)c1` (racemic) [Compound 4-6, (±)-2-(3-fluorobicyclo[1.1.1]pentan-1-yl)-5-(3-fluoro-5-methylphenyl)-2,5,6,7-tetrahydro-3H-pyrrolo[2,1-c][1,2,4]triazol-3-one], 44.1 nM.
The value for `O=c1n(C23CC(F)(C2)C3)nc2n1[C@H](c1cnccn1)C[C@@H]2F` [Compound 4-17, (5S,7S)-7-fluoro-2-(3-fluorobicyclo[1.1.1]pentan-1-yl)-5-(pyrazin-2-yl)-2,5,6,7-tetrahydro-3H-pyrrolo[2,1-c][1,2,4]triazol-3-one] was 38.8 nM; that for `N#CC12CCC(n3nc4n(c3=O)[C@H](c3ccccc3)CC4)(C1)C2` [Compound 1-39, 4-[(5S)-3-oxo-5-phenyl-6,7-dihydro-3H-pyrrolo[2,1-c][1,2,4]triazol-2(5H)-yl]bicyclo[2.1.1]hexane-1-carbonitrile] was 47 nM; that for `O=c1n(C23CC(F)(C2)C3)nc2n1[C@H](c1ccccc1F)CC2` [Compound 1-9, (5S)-2-(3-fluorobicyclo[1.1.1]pentan-1-yl)-5-(2-fluorophenyl)-2,5,6,7-tetrahydro-3H-pyrrolo[2,1-c][1,2,4]triazol-3-one] was 26.1 nM.
To `O=c1n(C23C4C5C2C2C3C4C52F)nc2n1[C@H](c1cc(F)cc(F)c1)CC2` (stereo partly drawn) [Compound 1-20, (5S)-5-(3,5-difluorophenyl)-2-(4-fluoropentacy-clo[4.2.0.0~2,5~.0~3,8~.0~4,7~]octan-1-yl)-2,5,6,7-tetrahydro-3H-pyrrolo[2,1-c][1,2,4]triazol-3-one] belongs 38.5 nM.
`C[C@@H]1C[C@@H](c2cc(F)cc(F)c2)n2c1nn(C13CC(C#N)(C1)C3)c2=O` [Compound 1-69, 3-((5S,7R)-5-(3,5-difluorophenyl)-7-methyl-3-oxo-6,7-dihydro-3H-pyrrolo[2,1-c][1,2,4]triazol-2(5H)-yl)bicyclo[1.1.1]pentane-1-carbonitrile]: the concentration giving a half-maximal response (EC50) amounted to 263 nM.
The value for `N#CC12CC(n3nc4n(c3=O)[C@H](c3cc(F)cc(F)c3)CS4)(C1)C2` [Compound 1-65, (R)-3-(5-(3,5-difluorophenyl)-3-oxo-5,6-dihydrothiazolo[2,3-c][1,2,4]triazol-2(3H)-yl)bicyclo[1.1.1]pentane-1-carbonitrile] was 21.1 nM; that for `N#CC12CC(n3nc4n(c3=O)[C@H](c3ccccc3F)CC4)(C1)C2` [Compound 1-23, 3-[(5S)-5-(2-fluorophenyl)-3-oxo-6,7-dihydro-3H-pyrrolo[2,1-c][1,2,4]triazol-2(5H)-yl]bicyclo[1.1.1]pentane-1-carbonitrile] was 31.8 nM; that for `O=c1n(C23CC(C(F)F)(C2)C3)nc2n1[C@H](c1cccc(F)c1)CC2` [Compound 1-33, (5S)-2-[3-(difluoromethyl)bicyclo[1.1.1]pentan-1-yl]-5-(3-fluorophenyl)-2,5,6,7-tetrahydro-3H-pyrrolo[2,1-c][1,2,4]triazol-3-one] was 30.4 nM.
Consider `O=c1n(C23CC(F)(C2)C3)nc2n1[C@H](c1ccc(F)cc1F)CC2` [Compound 1-48, (S)-5-(2,4-difluorophenyl)-2-(3-fluorobicyclo[1.1.1]pentan-1-yl)-2,5,6,7-tetrahydro-3H-pyrrolo[2,1-c][1,2,4]triazol-3-one], for which the EC50 was found to be 54.4 nM.
Turning to `O=c1n(C23CC(F)(C2)C3)nc2n1[C@H](c1cccc(Cl)c1)CC2` [Compound 1-63, (S)-5-(3-chlorophenyl)-2-(3-fluorobicyclo[1.1.1]pentan-1-yl)-2,5,6,7-tetrahydro-3H-pyrrolo[2,1-c][1,2,4]triazol-3-one], the 50% effective concentration (EC50) stood at 68.1 nM.
The value for `N#Cc1cccc(C2CCc3nn(C45CC(F)(C4)C5)c(=O)n32)c1` (racemic) [Compound 4-3, (±)-3-[2-(3-fluorobicyclo[1.1.1]pentan-1-yl)-3-oxo-2,5,6,7-tetrahydro-3H-pyrrolo[2,1-c][1,2,4]triazol-5-yl]benzonitrile] was 426 nM; that for `N#CC12CC(n3nc4n(c3=O)[C@H](c3ccccc3)CC4F)(C1)C2` (single isomer, unassigned) [Compound 6-7, 3-[(5S)-7-(S or R)-fluoro-3-oxo-5-phenyl-6,7-dihydro-3H-pyrrolo[2,1-c][1,2,4]triazol-2(5H)-yl]bicyclo[1.1.1]pentane-1-carbonitrile] was 505 nM.
With `N#CC12CC(n3nc4n(c3=O)[C@H](c3cnccn3)CC4)(C1)C2` [Compound 4-8, (S)-3-(3-oxo-5-(pyrazin-2-yl)-6,7-dihydro-3H-pyrrolo[2,1-c][1,2,4]triazol-2(5H)-yl)bicyclo[1.1.1]pentane-1-carbonitrile], the 50% effective concentration (EC50) came to 165 nM.
Turning to `O=c1n(C23CC(c4ccccc4)(C2)C3)nc2n1[C@H](c1cncc(F)c1)CC2` [Compound 1-13, (5S)-5-(5-fluoropyridin-3-yl)-2-(3-phenylbicyclo[1.1.1]pentan-1-yl)-2,5,6,7-tetrahydro-3H-pyrrolo[2,1-c][1,2,4]triazol-3-one], the EC50 was found to be 514 nM.
`N#Cc1ccc([C@@H]2CCc3nn(C45CC(F)(C4)C5)c(=O)n32)cc1` [Compound 1-67, (S)-4-(2-(3-fluorobicyclo[1.1.1]pentan-1-yl)-3-oxo-2,5,6,7-tetrahydro-3H-pyrrolo[2,1-c][1,2,4]triazol-5-yl)benzonitrile]: the EC50 turned out to be 279 nM.
To `COC12CCC(n3nc4n(c3=O)[C@H](c3cc(F)cc(F)c3)CC4)(CC1)C2` [Compound 1-26, (5S)-5-(3,5-difluorophenyl)-2-(4-methoxybicyclo[2.2.1]heptan-1-yl)-2,5,6,7-tetrahydro-3H-pyrrolo[2,1-c][1,2,4]triazol-3-one] belongs 377 nM; to `O=c1n(C23CC(F)(C2)C3)nc2n1[C@H](c1c(F)cccc1F)CC2` [Compound 1-40, (S)-5-(2,6-difluorophenyl)-2-(3-fluorobicyclo[1.1.1]pentan-1-yl)-2,5,6,7-tetrahydro-3H-pyrrolo[2,1-c][1,2,4]triazol-3-one], 34 nM.
The value for `O=c1n(C23CC(F)(C2)C3)nc2n1[C@H](c1ccc(C3CC3)cc1)CC2` [Compound 4-11, (S)-5-(4-cyclopropylphenyl)-2-(3-fluorobicyclo[1.1.1]pentan-1-yl)-2,5,6,7-tetrahydro-3H-pyrrolo[2,1-c][1,2,4]triazol-3-one] was 108 nM; that for `O=c1n(C23CCC(F)(CC2)C3)nc2n1[C@H](c1cc(F)cc(F)c1)CC2` [Compound 1-3, (5S)-5-(3,5-difluorophenyl)-2-(4-fluorobicyclo[2.2.1]heptan-1-yl)-2,5,6,7-tetrahydro-3H-pyrrolo[2,1-c][1,2,4]triazol-3-one] was 34.8 nM.
To `N#CC12CC(n3nc4n(c3=O)[C@H](c3ccccc3F)CC4F)(C1)C2` (single isomer, unassigned) [Compound 6-10, 3-[(5S)-7-(S or R)-fluoro-5-(2-fluorophenyl)-3-oxo-6,7-dihydro-3H-pyrrolo[2,1-c][1,2,4]triazol-2(5H)-yl]bicyclo[1.1.1]pentane-1-carbonitrile] belongs 18.1 nM; to `Cc1cc(F)cc([C@@H]2CCc3nn(C45CC(F)(C4)C5)c(=O)n32)c1` [Compound 4-9, (S)-5-(3-fluoro-5-methylphenyl)-2-(3-fluorobicyclo[1.1.1]pentan-1-yl)-2,5,6,7-tetrahydro-3H-pyrrolo[2,1-c][1,2,4]triazol-3-one], 17 nM.

Source of the values: patent US20240025912A1 (Merck Sharp & Dohme LLC, priority 2022, published 2024).
